Results on 1 compound are retold here after patent publication US7888118B2, “2-{2-[5-(3-chlorophenyl)]furanyl}-4,5-bis(4-methoxyphenyl)imidazole and methods for inducing differentiation of myoblasts or muscle fibers into neuron cells” (Industry-Academic Cooperation Foundation, Yonsei University, priority 2005, dated 2011).

Experiment [1] relates to human single muscle fibers. Description: Differentiation of isolated human muscle fibers into neuron cells. The experiment is classed as cell-based. As for the experimental part: Single fibers of human skeletal muscle are obtained as described previously (In Vitro Cell Dev Biol Anim. 2002, 38, 66). A sample of skeletal muscle is dissected from the abductor hallucis muscle. The sample is collected and transported in single fiber culture media (Ham's F-10 medium supplemented with 10% FBS, 2% chick embryo extract and 1.5 μg/mL amphotericin B). The muscle sample is incubated in 10 mL single fiber culture media containing 0.1% collagenase in a 50 mL Falcon™ tube for 1 h at 37° C. Bundles of muscle fibers are carefully dissected using a scalpel. The bundles are laid in a Petri dish containing 10 mL single fiber culture media with 0.1% collagenase at 37° C. for 5 h. Isolation of single muscle fibers is carried out by repeatedly triturating the muscle sample with a wide-mouthed Pasteur pipette. Isolated muscle fibers that have not undergone hypercontraction (which renders them unsuitable for plating in culture dishes) are placed in matrigel-coated 6-well plates at a density of three fibers per well. Fibers are plated in one drop of single fiber culture media and allowed to attach for 6 h and then 1 mL of media is added to the culture. After 24 h, the media are changed to single fiber culture media without amphotericin B.
After 5 days, populations of satellite muscle precursor cells migrate from the fiber and begin to proliferate. […]

The test system of a further experiment is Murine myoblasts (C2C12). Description: Neurite outgrowth / neuron differentiation of myoblasts observed by light microscope. The experiment is classed as cell-based. As to the method:
Murine myoblasts (C2C12) are usually cultured in RPMI 1640 or DMEM supplemented with 10% FBS, 50 units/mL penicillin and 50 μg/mL of streptomycin at 37° C. with 5% CO2 in air atmosphere.
For the small molecule screen, the cultured C2C12 cells are seeded in a 96-well plate at a density of 10^3 cells per well in culture media. After 24 h, the culture media are replaced with differentiation media (RPMI 1640 or DMEM containing 1% FBS, 50 units/mL penicillin and 50 μg/mL of streptomycin). Test compounds are then added at a final concentration of 5-10 μM. After 96 h incubation, morphological changes of cells are observed by a light microscope (Nikon Eclipse TE2000) to detect neurite outgrowth characteristic of neuron differentiation. To ascertain neuron differentiation, the cells are washed with PBS and loaded FM1-43 (a final concentration: 2 μM, Molecular Probes) dissolved in Ringer buffer containing 100 mM KCl. […] Fluorescent intensity of the treated cells (excitation wavelength: 470 nm, emission wavelength: 540 nm) is read on a fluorescent microplate reader (SpectraMax GeminiEM, Molecular Devices).
An imidazole library of about 300 compounds is added at a final concentration of 5-10 μM. […] Fluorescent intensity (excitation wavelength: 470 nm, emission wavelength: 540 nm) is read on a fluorescent microplate reader (SpectraMax GeminiEM, Molecular Devices).

Structures are written as SMILES.

`COc1ccc(-c2nc(-c3ccc(-c4cccc(Cl)c4)o3)[nH]c2-c2ccc(OC)cc2)cc1` [Neurodazine 1, 2-{2-[5-(3-chlorophenyl)]furanyl}-4,5-bis(4-methoxyphenyl)imidazole]: in experiment [1], the “differentiation of muscle fibers into neuron cells (FIG. 3)” value is “Differentiated neuron cells from muscle fibers”. Also, the “differentiation of myoblasts into neuron cells (FIG. 2)” value in the experiment on Murine myoblasts (C2C12) is listed as “Differentiated neuron cells from myoblasts”.
